Molecular target: T1, human LPAR1 (Homo sapiens, UniProt Q92633)
T1 construct: expressed in transfected cells
Assay: Test Example 1: antagonism against response of LPA-induced increase in intracellular Ca2+ concentration in RH7777 cells stably expressing human LPAR1
Format: cell-based
Conditions: RH7777 cells stably expressing human LPAR1; Fluo-4 fluorescence, FDSS6000; read-out: IC50 value (concentration producing 50% antagonism against response of LPA-induced increase in intracellular Ca2+ concentration) (converted)
Summary of the method: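 RH7777 cells stably transfected with human LPAR1 were preincubated with test compound 30 min at 37 °C in HBSS/20 mM HEPES/probenecid/0.05% BSA buffer, pH 7.4, then LPA-stimulated.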

T1 sequence (Q92633 whole entry): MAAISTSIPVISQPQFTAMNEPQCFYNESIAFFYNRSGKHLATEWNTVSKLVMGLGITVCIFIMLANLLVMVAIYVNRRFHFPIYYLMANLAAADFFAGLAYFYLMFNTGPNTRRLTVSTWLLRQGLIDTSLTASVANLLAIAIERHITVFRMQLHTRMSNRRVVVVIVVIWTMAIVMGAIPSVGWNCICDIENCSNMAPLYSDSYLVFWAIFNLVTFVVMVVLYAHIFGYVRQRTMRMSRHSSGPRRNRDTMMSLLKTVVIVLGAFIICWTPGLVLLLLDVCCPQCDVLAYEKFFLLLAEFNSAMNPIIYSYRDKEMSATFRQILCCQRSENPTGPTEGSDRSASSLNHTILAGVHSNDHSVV

IC50	SMILES
38.4 nM	CCOc1cc([C@@H](C)N(CCCCc2ccccc2)C(=O)NC2CC(C(=O)O)N(C(C)=O)C2)cc(OCC)c1C(C)=O (some centres unmarked) [Example 1-164]
45.5 nM	CCOc1cccc(C(C)N(CCCCc2ccccc2)C(=O)NC2(C(=O)O)CC(F)(F)C2)c1 (centres unmarked) [Example 5-3]
16.8 nM	COc1cc([C@@H](C)N(CCCCc2ccccc2)C(=O)NC2(C(=O)O)CCCC2)cc(OC)c1C [Example 1-117]
6.22 nM	CCOc1c(C(C)=O)ccc([C@@H](C)N(CCO[C@H](C)c2ccccc2)C(=O)NC2(C(=O)O)CCOCC2)c1C [Example 4-159]
3.84 nM	CCOc1cc([C@@H](C)N(CCO[C@@H](C)c2ccccc2)C(=O)N[C@]2(C(=O)O)C[C@H](OCC)C2)c(Cl)c(OCC)c1C(C)=O [Example 5-27]
1.21 nM	CCOc1cc([C@@H](C)N(CCCC(F)(F)c2ccccc2)C(=O)NC2(C(=O)O)CC2)cc(OCC)c1C1CC1 [Example 4-46]
7.43 nM	Cc1c(OC2CC2)cc(C(C)N(CCCCc2ccccc2)C(=O)NC2(C(=O)O)CC(F)(F)C2)cc1OC1CC1 (centres unmarked) [Example 1-73]
20.4 nM	CCOc1cc([C@@H](C)N(CCCCc2ccccc2)C(=O)NC(C)(C)C(=O)O)cc(OCC)c1C [Example 1-13]
10.1 nM	CCOc1cc([C@@H](C)N(CCC(F)(F)Cc2ccccc2)C(=O)NC2(C(=O)O)CC(OC)C2)cc(OCC)c1C(C)=O (some centres unmarked) [Example 4-90]
0.882 nM	CCOc1cc(C(C)N(CCOCc2ccccc2)C(=O)NC2(C(=O)O)CC(OC)C2)cc(OCC)c1C1CC1 (centres unmarked) [Example 5-204]
7.35 nM	CCNc1cc(C(C)N(CCCCc2ccccc2)C(=O)NC2(C(=O)O)CC(F)(F)C2)cc(OCC)c1C(C)=O (centres unmarked) [Example 5-102]
23.6 nM	CCOc1cc([C@@H](C)N(CCC(F)(F)Cc2ccccc2)C(=O)NC2(C(=O)O)CC2)cc(OCC)c1C1CC1 [Example 4-80]
128 nM	CCNc1cc(C(C)N(CCCCc2ccccc2)C(=O)NC2(C(=O)O)CCC2)cc(OCC)c1C(C)=O (single isomer, unassigned) [Example 5-111]
2.75 nM	CCOc1cc([C@@H](C)N(CCCCc2ccccc2)C(=O)NC2(C(=O)NS(C)(=O)=O)CC(F)(F)C2)cc(OCC)c1C(C)=O [Example 7-1, 1-({[(1R)-1-(4-Acetyl-3,5-Diethoxyphenyl)Ethyl](4-Phenylbutyl) Carbamoyl}Amino)-3,3-Difluoro-N-(Methanesulfonyl)Cyclobutane-1-Carboxamide]
3.91 nM	CCOc1cc([C@@H](C)N(CCO[C@@H](C)c2ccccc2)C(=O)NC2(C(=O)O)CC(OC)C2)cc(OCC)c1C(C)O (some centres unmarked) [Example 4-126]
4.02 nM	CCOc1cc(C(C)N(CCCCc2ccccc2)C(=O)NC2(C(=O)O)CC(F)(F)C2)cc(OCC)c1Br (centres unmarked) [Example 1-42]
1.98 nM	CCOc1cc(C(C)N(CCOCc2ccccc2)C(=O)NC2(C(=O)O)CC(OCC)C2)c(Cl)c(OCC)c1C(C)=O (centres unmarked) [Example 5-212]
4.31 nM	CCOc1cc([C@@H](C)N(CCOCc2ccccc2)C(=O)NC2(C(=O)O)CCOCC2)cc(OCC)c1C(C)=O [Example 4-110]
2.59 nM	CCOc1cc([C@@H](C)N(CCO[C@@H](C)c2ccccc2)C(=O)NC2(C(=O)O)CC2)c(Cl)c(OCC)c1C(C)=O [Example 5-31, 1-[([(1R)-1-(4-acetyl-2-chloro-3,5-diethoxyphenyl)ethyl]{2-[(1S)-1-phenylethoxy]ethyl}carbamoyl)amino]cyclopropane-1-carboxylic acid]

IC50	SMILES
1.11 nM	CCOc1cc([C@@H](C)N(CCCC(F)(F)c2ccccc2)C(=O)NC2(C(=O)O)CCC2)cc(OCC)c1C1CC1 [Example 4-51]
103 nM	CCOc1cc(C(C)N(CCCCc2ccccc2)C(=O)NC2(C(=O)O)CC(F)(F)C2)cc(OCC)c1C(N)=O (centres unmarked) [Example 1-40, 1-({[1-(4-Carbamoyl-3,5-Diethoxyphenyl)Ethyl](4-Phenylbutyl) Carbamoyl}Amino)-3,3-Difluorocyclobutane-1-Carboxylic Acid]
7.08 nM	CCOc1cc([C@@H](C)N(CCCCc2ccccc2)C(=O)NC2(c3nn[nH]n3)CC(F)(F)C2)c(Cl)c(OCC)c1C(C)O (some centres unmarked) [Example 10-10]
18.2 nM	CCOc1cc(C(C)N(CCCCc2ccccc2)C(=O)NC2CCC[C@H]2C(=O)O)cc(OCC)c1C (some centres unmarked) [Example 1-136]
1.42 nM	CCOc1cc([C@@H](C)N(CCOCc2ccccc2)C(=O)NC2(C(=O)O)CC(OC)C2)c(C)c(OCC)c1C(C)=O (some centres unmarked) [Example 5-73]
1.04 nM	CCOc1cc(C(C)N(CCOCc2ccccc2)C(=O)NC2(C(=O)O)CC(F)(F)C2)c(Cl)c(OCC)c1C1CC1 (centres unmarked) [Example 5-197]
88.3 nM	CCOc1cc(C(C)N(CCCCc2ccccc2)C(=O)NC2(C(=O)NS(C)(=O)=O)CCCC2)cc(OCC)c1C (centres unmarked) [Example 7-3]
1040 nM	CCOC(=O)C1(NC(=O)N(CCO[C@@H](C)c2ccccc2)C(C)c2cc(OCC)c(C(C)=O)c(OCC)c2Cl)CC(OCC)C1 (some centres unmarked) [Example 6-10]
3.38 nM	CCOc1c(C2CC2)ccc([C@@H](C)N(CCO[C@H](C)c2ccccc2)C(=O)NC2(C(=O)O)CCC2)c1C [Example 4-171]
2.74 nM	CCOc1cc([C@@H](C)N(CCC2Cc3ccccc3C2)C(=O)NC2(C(=O)O)CC(F)(F)C2)cc(OCC)c1C [Example 4-21, 1-({[(1R)-1-(3,5-Diethoxy-4-Methylphenyl)Ethyl][2-(2,3-Dihydro-1H-Inden-2-Yl)Ethyl]Carbamoyl}Amino)-3,3-Difluorocyclobutane-1-Carboxylic Acid]
31 nM	CCOc1cc([C@@H](C)N(CCC(F)(F)Cc2ccccc2)C(=O)NC2(C(=O)O)CCOCC2)c(Cl)c(OCC)c1C(C)O (stereo partly drawn) [Example 5-68, 4-{[{(1R)-1-[2-Chloro-3,5-Diethoxy-4-(1-Hydroxyethyl)Phenyl]Ethyl}(3,3-Difluoro-4-Phenylbutyl) Carbamoyl]Amino}Oxane-4-Carboxylic Acid]
2.75 nM	CCOc1cc(C(C)N(CCCCc2ccccc2)C(=O)NC2(C(=O)O)CC(OCC)C2)c(Cl)c(OCC)c1C(C)=O (centres unmarked) [Example 5-209]
62.7 nM	COc1cc(C(CO)N(CCCCc2ccccc2)C(=O)NC2(C(=O)O)Cc3ccccc3C2)cc(OC)c1C (centres unmarked) [Example 3-9]
4.63 nM	CCOc1cc([C@@H](C)N(CCO[C@@H](C)c2ccccc2)C(=O)N[C@]2(C(=O)O)C[C@H](OC)C2)c(Cl)c(OCC)c1C(C)=O [Example 5-29]
3.42 nM	CCOc1cc([C@@H](C)N(CCCCc2ccccc2)C(=O)NC2(C(=O)NS(N)(=O)=O)CC(F)(F)C2)cc(OCC)c1C(C)=O [Example 7-4, 1-({[(1R)-1-(4-Acetyl-3,5-Diethoxyphenyl)Ethyl](4-Phenylbutyl) Carbamoyl}Amino)-3,3-Difluoro-N-Sulfamoylcyclobutane-1-Carboxamide]
38.4 nM	CCOc1cc(C(C)N(CCCCc2ccccc2)C(=O)NC2(c3nn[nH]n3)CCCC2)cc(OCC)c1C (centres unmarked) [Example 10-18]
1580 nM	COc1cc(CN(CCCCc2ccccc2)C(=O)NC(CC(F)(F)F)C(=O)O)cc(OC)c1C (centres unmarked) [Example 1-6]
3.34 nM	CCOc1c(C(C)=O)ccc([C@@H](C)N(CCCC(F)(F)c2ccccc2)C(=O)NC2(C(=O)O)CC(OCC)C2)c1C (some centres unmarked) [Example 4-72]
3.63 nM	CCOc1cc([C@@H](C)N(CCO[C@@H](C)c2ccccc2)C(=O)N[C@]2(C(=O)O)C[C@@H](OCC)C2)cc(OCC)c1C(C)=O [Example 4-97, Trans-1-[([(1R)-1-(4-Acetyl-3,5-Diethoxyphenyl)Ethyl]{2-[(1S)-1-Phenylethoxy]Ethyl}Carbamoyl)Amino]-3-Ethoxycyclobutane-1-Carboxylic Acid]
